Laboratory results as given in patent US9745311B2, “Substituted pyrrolo[2,3-b]pyrazines as FGFR inhibitors” (Incyte Corporation, priority 2012, dated 2017).
pIC50: −log10 of the molar value. Read-outs that look alike come from different tables or passages of the source.

Tests used:
FGFR3 enzyme (Millipore) = FGFR3 enzyme (Millipore) (Homo sapiens (Human), UniProt P22607); conditions: read-out: FGFR3 IC50, ATP 140 μM
Experimental: (§1) The inhibitor potency of compounds was measured in an enzyme assay that measures peptide phosphorylation using FRET measurements to detect product formation. Inhibitors were serially diluted in DMSO and a volume of 0.5 μL was transferred to the wells of a 384-well plate. For FGFR3, a 10 μL volume of FGFR3 enzyme (Millipore) diluted in assay buffer (50 mM HEPES, 10 mM MgCl2, 1 mM EGTA, 0.01% Tween-20, 5 mM DTT, pH 7.5) was added to the plate and pre-incubated for 5-10 minutes. Appropriate controls (enzyme blank and enzyme with no inhibitor) were included on the plate. […] The plate was incubated at 25° C. for 1 hr. […] The plate was allowed to equilibrate for ˜1 hr before scanning the wells on a PheraStar plate reader.
(§2) GraphPad prism3 was used to analyze the data. The IC50 values were derived by fitting the data to the equation for a sigmoidal dose-response with a variable slope. Y=Bottom+(Top−Bottom)/(1+10^((Log IC50−X)*HillSlope)) where X is the logarithm of concentration and Y is the response.

FGFR2 = FGFR2 (Homo sapiens (Human), UniProt P21802); assay: FGFR Enzymatic Assay (FGFR2); format: biochemical; conditions: enzyme 0.01 nM, ATP 100 μM; read-out: FGFR2 IC50;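 also: FRET read-out of peptide phosphorylation by the purified kinase, with enzyme-free blank and uninhibited enzyme as controls, potency from a variable-slope sigmoidal dose-response fit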
Experimental: as §1, §2

FGFR1 = FGFR1 (Homo sapiens (Human), UniProt P11362); assay: FGFR Enzymatic Assay (FGFR1); format: biochemical; conditions: enzyme 0.02 nM, ATP 210 μM
FGFR1, sequence (P11362 22-822): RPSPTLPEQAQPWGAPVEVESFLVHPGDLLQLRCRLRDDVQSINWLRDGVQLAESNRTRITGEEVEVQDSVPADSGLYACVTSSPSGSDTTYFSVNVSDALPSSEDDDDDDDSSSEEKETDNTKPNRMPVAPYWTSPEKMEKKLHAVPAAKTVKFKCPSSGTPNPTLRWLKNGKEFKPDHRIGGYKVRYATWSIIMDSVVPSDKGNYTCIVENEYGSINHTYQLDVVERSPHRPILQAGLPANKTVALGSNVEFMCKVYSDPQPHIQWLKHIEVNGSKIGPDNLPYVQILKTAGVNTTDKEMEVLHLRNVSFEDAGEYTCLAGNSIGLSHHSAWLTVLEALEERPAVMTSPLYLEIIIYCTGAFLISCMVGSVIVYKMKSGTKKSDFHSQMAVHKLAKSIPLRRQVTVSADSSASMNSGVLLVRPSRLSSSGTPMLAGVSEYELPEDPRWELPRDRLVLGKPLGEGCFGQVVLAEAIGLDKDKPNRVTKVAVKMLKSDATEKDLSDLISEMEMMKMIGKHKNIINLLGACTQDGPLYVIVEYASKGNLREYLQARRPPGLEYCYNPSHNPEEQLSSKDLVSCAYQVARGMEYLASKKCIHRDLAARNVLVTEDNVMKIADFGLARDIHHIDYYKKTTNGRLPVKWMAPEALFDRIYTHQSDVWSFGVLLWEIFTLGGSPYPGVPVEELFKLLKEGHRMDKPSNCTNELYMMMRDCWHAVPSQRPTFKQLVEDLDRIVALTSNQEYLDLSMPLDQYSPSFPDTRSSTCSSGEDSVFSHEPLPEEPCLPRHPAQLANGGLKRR
Experimental: as §1, §2

FGFR3 enzyme (Millipore), sequence (P22607 23-806): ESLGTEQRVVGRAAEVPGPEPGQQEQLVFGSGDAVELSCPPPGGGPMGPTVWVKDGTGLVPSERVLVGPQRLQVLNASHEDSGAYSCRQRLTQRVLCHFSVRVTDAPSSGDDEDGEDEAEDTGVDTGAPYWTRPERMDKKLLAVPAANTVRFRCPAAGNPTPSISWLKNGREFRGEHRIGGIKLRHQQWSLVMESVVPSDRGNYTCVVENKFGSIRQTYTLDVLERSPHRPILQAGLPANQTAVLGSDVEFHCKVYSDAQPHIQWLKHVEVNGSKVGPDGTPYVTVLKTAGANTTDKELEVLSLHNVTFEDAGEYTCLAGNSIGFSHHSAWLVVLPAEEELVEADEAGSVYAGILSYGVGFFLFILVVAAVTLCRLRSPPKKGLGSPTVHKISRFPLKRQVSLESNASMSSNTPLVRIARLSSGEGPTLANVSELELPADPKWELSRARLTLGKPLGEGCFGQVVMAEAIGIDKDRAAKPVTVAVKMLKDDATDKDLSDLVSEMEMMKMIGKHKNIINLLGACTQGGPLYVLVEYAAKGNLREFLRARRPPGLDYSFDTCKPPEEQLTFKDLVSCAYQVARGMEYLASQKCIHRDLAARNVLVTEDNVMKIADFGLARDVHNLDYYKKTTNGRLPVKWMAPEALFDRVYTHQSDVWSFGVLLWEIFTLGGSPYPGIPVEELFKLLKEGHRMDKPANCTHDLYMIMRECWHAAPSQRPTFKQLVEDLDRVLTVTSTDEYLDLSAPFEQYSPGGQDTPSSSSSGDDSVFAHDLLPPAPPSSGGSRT
FGFR2, sequence (P21802 22-821): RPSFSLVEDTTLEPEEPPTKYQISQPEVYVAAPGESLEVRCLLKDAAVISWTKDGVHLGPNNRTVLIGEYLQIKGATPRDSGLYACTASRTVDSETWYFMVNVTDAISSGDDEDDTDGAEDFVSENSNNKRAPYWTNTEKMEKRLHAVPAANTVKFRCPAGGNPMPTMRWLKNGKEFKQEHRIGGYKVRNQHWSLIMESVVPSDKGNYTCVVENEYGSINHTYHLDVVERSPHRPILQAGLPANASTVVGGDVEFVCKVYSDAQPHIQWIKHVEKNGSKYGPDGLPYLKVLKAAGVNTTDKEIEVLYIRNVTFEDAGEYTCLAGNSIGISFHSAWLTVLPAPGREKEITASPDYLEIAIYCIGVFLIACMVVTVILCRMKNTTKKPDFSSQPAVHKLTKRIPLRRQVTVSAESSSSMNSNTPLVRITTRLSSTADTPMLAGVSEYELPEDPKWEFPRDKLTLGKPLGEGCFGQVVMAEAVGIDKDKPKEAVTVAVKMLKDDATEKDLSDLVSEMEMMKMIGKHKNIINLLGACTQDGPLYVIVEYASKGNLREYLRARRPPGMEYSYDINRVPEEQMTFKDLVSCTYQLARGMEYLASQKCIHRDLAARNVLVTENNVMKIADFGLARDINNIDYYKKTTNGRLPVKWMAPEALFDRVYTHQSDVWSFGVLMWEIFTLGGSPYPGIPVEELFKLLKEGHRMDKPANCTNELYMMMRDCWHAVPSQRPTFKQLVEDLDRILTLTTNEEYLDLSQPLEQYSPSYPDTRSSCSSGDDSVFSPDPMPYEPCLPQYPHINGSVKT

| Compound | pIC50 (FGFR2) | pIC50 (FGFR3 enzyme (Millipore); class symbols) | pIC50 (FGFR1) | pIC50 (FGFR3 enzyme (Millipore); numeric bounds) |
| --- | --- | --- | --- | --- |
| CCN(CC)CCCc1cc2nc(CCc3cc(OC)cc(OC)c3)cnc2[nH]1 [Example 28, 3-{2-[2-(3,5-dimethoxyphenyl)ethyl]-5H-pyrrolo[2,3-b]pyrazin-6-yl}-N,N-diethylpropan-1-amine] | – | – | – | < 5.70 |
| COc1cc(CCc2cnc3[nH]c(-c4cnn(C[C@H](C)O)c4)cc3n2)cc(OC)c1 [Example 39, (2S)-1-(4-{2-[2-(3,5-dimethoxyphenyl)ethyl]-5H-pyrrolo[2,3-b]pyrazin-6-yl}-1H-pyrazol-1-yl)propan-2-ol] | > 7.00 | > 7.00 | > 7.00 | – |
| COc1cc(CCc2cnc3[nH]c(-c4ccc(N5CCN(C)CC5)cc4)c(C#N)c3n2)cc(OC)c1 [Example 45, 2-[2-(3,5-dimethoxyphenyl)ethyl]-6-[4-(4-methylpiperazin-1-yl)phenyl]-5H-pyrrolo[2,3-b]pyrazine-7-carbonitrile] | > 7.00 | > 7.00 | > 7.00 | – |
| COc1cc(CCc2cnc3[nH]c(-c4cnn(C5CCOCC5)c4)cc3n2)cc(OC)c1 [Example 32, 2-[2-(3,5-dimethoxyphenyl)ethyl]-6-[1-(tetrahydro-2H-pyran-4-yl)-1H-pyrazol-4-yl]-5H-pyrrolo[2,3-b]pyrazine] | > 7.00 | > 7.00 | > 7.00 | – |
| COc1cc(CCc2cnc3[nH]c(C4CCN(C)CC4)cc3n2)cc(OC)c1 [Example 24, 2-[2-(3,5-dimethoxyphenyl)ethyl]-6-(1-methylpiperidin-4-yl)-5H-pyrrolo[2,3-b]pyrazine] | – | – | – | < 5.70 |
| COc1cc(CCc2cnc3[nH]c(C(=O)N(C)C)cc3n2)cc(OC)c1 [Example 26, 2-[2-(3,5-dimethoxyphenyl)ethyl]-N,N-dimethyl-5H-pyrrolo[2,3-b]pyrazine-6-carboxamide] | 5.57 to 6.30 | – | – | < 5.70 |
| CNC(=O)c1cc2nc(CCc3cc(OC)cc(OC)c3)cnc2[nH]1 [Example 25, 2-[2-(3,5-dimethoxyphenyl)ethyl]-N-methyl-5H-pyrrolo[2,3-b]pyrazine-6-carboxamide] | – | – | – | < 5.70 |
| COc1cc(CCc2cnc3[nH]c(-c4ccc5c(c4)OCO5)cc3n2)cc(OC)c1 [Example 21, 6-(1,3-benzodioxol-5-yl)-2-[2-(3,5-dimethoxyphenyl)ethyl]-5H-pyrrolo[2,3-b]pyrazine] | – | – | – | < 5.70 |

Further lines, with some results ahead:

| pIC50 (FGFR2) | pIC50 (FGFR3 enzyme (Millipore); class symbols) | pIC50 (FGFR1) | Compound | pIC50 (FGFR3 enzyme (Millipore); numeric bounds) |
| --- | --- | --- | --- | --- |
| > 7.00 | > 7.00 | > 7.00 | COc1cc(OC)c(F)c(CCc2cnc3[nH]c(-c4cccnc4OC)cc3n2)c1F [Example 86, 2-(2,6-difluoro-3,5-dimethoxyphenethyl)-6-(2-methoxypyridin-3-yl)-5H-pyrrolo[2,3-b]pyrazine] | – |
| > 7.00 | > 7.00 | > 7.00 | COc1cc(CCc2cnc3[nH]c(-c4ccc(N5CCN(CCO)CC5)cc4)cc3n2)cc(OC)c1 [Example 71, 2-(4-(4-(2-(3,5-Dimethoxyphenethyl)-5H-pyrrolo[2,3-b]pyrazin-6-yl)phenyl)piperazin-1-yl)ethanol] | – |
| > 7.00 | > 7.00 | > 7.00 | COc1cc(CCc2cnc3[nH]c(-c4cccc(N5CCN(C)CC5)c4)cc3n2)cc(OC)c1 [Example 79, 2-(3,5-Dimethoxyphenethyl)-6-(3-(4-methylpiperazin-1-yl)phenyl)-5H-pyrrolo[2,3-b]pyrazine] | – |
| > 7.00 | – | > 7.00 | COc1cc(CCc2cnc3[nH]c(-c4ccc(N5CCN(C)CC5)c(C#N)c4)cc3n2)cc(OC)c1 [Example 72, 5-(2-(3,5-Dimethoxyphenethyl)-5H-pyrrolo[2,3-b]pyrazin-6-yl)-2-(4-methylpiperazin-1-yl)benzonitrile] | – |
| > 7.00 | – | > 7.00 | COc1cc(CCc2cnc3[nH]c(-c4ccc(F)c(C#N)c4)cc3n2)cc(OC)c1 [Example 65, 5-(2-(3,5-Dimethoxyphenethyl)-5H-pyrrolo[2,3-b]pyrazin-6-yl)-2-fluorobenzonitrile] | – |
